Laboratory results as given in US6461997B1, “Triazole sulfones having herbicidal activity” (Monsanto Technology LLC, priority 1999, dated 2002).

Assays:
[1] = tested on: CIRAR (canada thistle (seedling)); test: Pre-emergence herbicidal activity, warm season; type: in vivo, Cirsium arvense; conditions: GR80 = lowest tested rate (300, 100, 30, 10 g/ha) with 80% or greater inhibition; approx. 14 days after treating; 30/21° C.
In short: (§1)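 Seeds sown in sterilised fertilised topsoil received surface-applied compound in 50:50 acetone/water, typically at 300, 100, 30 and 10 g/ha, then greenhouse-grown at 30/21° C (warm-season species) or 18/13° C (cool-season species). Percent inhibition versus untreated plants was scored at about 14 days, giving GR80; an asterisk marks activity short of 80% at the top rate.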

SOLNI (black nightshade) = test: Pre-emergence herbicidal activity, warm season; type: in vivo, Solanum nigrum; conditions: for Pre-emergence activity (GR80) SOLNI: GR80 = lowest tested rate (300, 100, 30, 10 g/ha) with 80% or greater inhibition, approx. 14 days after treating, 30/21° C.; for inhibition at 10 g/ha / inhibition at 30 g/ha / inhibition at 100 g/ha / inhibition at 300 g/ha / inhibition at 900 g/ha: Solanum nigrum, pre-emergence application, read-out: Percent inhibition, weed SOLNI
In short: as §1

DIGSA (large crabgrass) = test: Pre-plant incorporated (PPI) herbicidal activity, warm season; type: in vivo, Digitaria sanguinalis; conditions: for inhibition at 10 g/ha / inhibition at 30 g/ha / inhibition at 100 g/ha / inhibition at 300 g/ha / inhibition at 900 g/ha: Digitaria sanguinalis, PPI application, read-out: Percent inhibition DIGSA; for PPI activity GR80, DIGSA: pre-plant incorporated, lowest tested rate with 80% or greater inhibition, about 14 days
Procedure: (§2) In another set of tests, the pre-plant incorporated (PPI) activity of compounds of this invention was evaluated on the same species as for the pre-emergence tests described above. In the PPI tests the following procedure, designed to simulate PPI application, was used.
(§3) A pre-prepared topsoil mixture (described above) was placed in a pot and compacted to a depth of 1.0 to 1.25 cm from the top of the pot. Seeds of each of several monocotyledonous and dicotyledonous annual plant species were placed on top of the soil. A sufficient quantity of soil to cover the seeds and level fill the pot was weighed into an open container. A known amount of the test compound was dissolved or suspended in an organic solvent and applied by spraying to this cover soil. The cover soil was thoroughly mixed to distribute the test compound throughout the cover soil, and was then applied as a cover layer over the seeds. Untreated soil was used as a cover layer for control pots. After treatment the plants were placed in a greenhouse where they received 0.64 cm of overhead irrigation. All subsequent watering consisted of a light overhead mist and/or subirrigation as needed for germination and growth. Tables 9 and 10 below relate to warm season plant species which were placed after pre-emergence treatment in a greenhouse with a 30/21° C. day/night temperature regime. Tables 11 and 12 below relates to cool season plant species placed after pre-emergence treatment in a greenhouse or growth chamber with an 18/13° C. day/night temperature regime. Only the compounds of Examples 1, 6, 8, 11, 13 and 15-20 were included in PPI tests.
(§4) Approximately 14 days after planting and treating, the plants were observed and herbicidal efficacy recorded as percent inhibition by comparison with untreated plants.

AVEFA (wild oat) = test: Pre-plant incorporated (PPI) herbicidal activity, cool season; type: in vivo, Avena fatua; conditions: for PPI activity GR80, AVEFA: pre-plant incorporated, lowest tested rate with 80% or greater inhibition, about 14 days
Procedure: as §2, §3, §4

[2] = tested on: AGSST (creeping bentgrass); test: as above; type: in vivo, Agrostis stolonifera; conditions: for PPI activity GR80, AGSST: pre-plant incorporated, lowest tested rate with 80% or greater inhibition, about 14 days
Procedure: as §2, §3, §4

corn (ZEAMX) = test: Selectivity test, PPI, warm season crop; type: in vivo, Zea mays; conditions: Zea mays, PPI application, read-out: Percent inhibition ZEAMX
Procedure: as §3, §4
(§5) Additional pre-emergence and PPI tests were conducted by the procedures described above, on warm and cool season weed species in the presence of crop species, to assess herbicidal selectivity. Crop species included in warm season tests were corn (Zea mays, ZEAMX), rice (Oryza sativa, ORYSA) and soybean (Glycine max, GLYMX). Crop species included in cool season tests were wheat (Triticum aestivum, TRZAW), barley (Hordeunm vulgare, HORVX) and oilseed rape (Brassica napus, BRSNS).
(§6) Tables 15 and 16 relate to pre-emergence and PPI tests respectively on warm season species. Table 17 relates to pre-emergence tests on cool season species.

[3] = tested on: PANMI (wild proso millet); test: Pre-emergence herbicidal activity, warm season; type: in vivo, Panicum miliaceum; conditions: for Pre-emergence activity (GR80) PANMI: GR80 = lowest tested rate (300, 100, 30, 10 g/ha) with 80% or greater inhibition, approx. 14 days after treating, 30/21° C.; for inhibition at 10 g/ha / inhibition at 30 g/ha / inhibition at 100 g/ha / inhibition at 300 g/ha / inhibition at 900 g/ha: Panicum miliaceum, pre-emergence application, read-out: Percent inhibition, weed PANMI
In short: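 Herbicidal efficacy was judged visually as percent inhibition compared with untreated plants some 14 days after treatment, giving GR80 over doses of 10 to 300 g/ha. Proso millet and crabgrass grew at 30/21 °C; blackgrass and wild buckwheat grew at 18/13 °C.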

soybean (GLYMX) = test: Selectivity test, PPI, warm season crop; type: in vivo, Glycine max; conditions: Glycine max, PPI application, read-out: Percent inhibition GLYMX
Procedure: as §3, §4, §5, §6

SASKR (russian thistle) = test: Pre-plant incorporated (PPI) herbicidal activity, cool season; type: in vivo, Salsola kali; conditions: for PPI activity GR80, SASKR: pre-plant incorporated, lowest tested rate with 80% or greater inhibition, about 14 days
Procedure: as §2, §3, §4

LOLMG (annual ryegrass) = test: as above; type: in vivo, Lolium multiflorum; conditions: for PPI activity GR80, LOLMG: pre-plant incorporated, lowest tested rate with 80% or greater inhibition, about 14 days
Procedure: as §2, §3, §4

STEME (common chickweed) = test: Pre-emergence herbicidal activity, cool season; type: in vivo, Stellaria media; conditions: lowest tested rate with 80% or greater inhibition; rates 300, 100, 30, 10 g/ha; about 14 days
In short: as §1

## CCN(CC)C(=O)n1cnc(S(=O)(=O)C(F)(F)Br)n1 [Example 1, 3-(bromodifluoromethylsulfonyl)-1-(N,N-diethylcarbamoyl)-1,2,4-triazole]
[1]
  Pre-emergence activity (GR80) CIRAR: 100 g/ha
SOLNI (black nightshade)
  Pre-emergence activity (GR80) SOLNI: 100 g/ha
  inhibition at 10 g/ha: 0%
  inhibition at 30 g/ha: 0%
  inhibition at 100 g/ha: 0%
  inhibition at 300 g/ha: 0%
  inhibition at 900 g/ha: 20%
DIGSA (large crabgrass)
  inhibition at 10 g/ha: 80%
  inhibition at 30 g/ha: 95%
  inhibition at 100 g/ha: 100%
  inhibition at 300 g/ha: 100%
  inhibition at 900 g/ha: 100%
  PPI activity GR80, DIGSA: 100 g/ha
AVEFA (wild oat); Avena fatua, weed, PPI application, 30 g/ha, read-out: Percent inhibition AVEFA
  inhibition at 30 g/ha: 0%
AVEFA (wild oat); Avena fatua, weed, PPI application, 100 g/ha, read-out: Percent inhibition AVEFA
  inhibition at 100 g/ha: 20%
AVEFA (wild oat); Avena fatua, weed, PPI application, 300 g/ha, read-out: Percent inhibition AVEFA
  inhibition at 300 g/ha: 95%
AVEFA (wild oat); Avena fatua, weed, PPI application, 900 g/ha, read-out: Percent inhibition AVEFA
  inhibition at 900 g/ha: 90%
AVEFA (wild oat)
  PPI activity GR80, AVEFA: 300 g/ha
[2]; Agrostis stolonifera, weed, PPI application, 30 g/ha, read-out: Percent inhibition AGSST
  inhibition at 30 g/ha: 100%
[2]; Agrostis stolonifera, weed, PPI application, 100 g/ha, read-out: Percent inhibition AGSST
  inhibition at 100 g/ha: 100%
[2]; Agrostis stolonifera, weed, PPI application, 300 g/ha, read-out: Percent inhibition AGSST
  inhibition at 300 g/ha: 100%
[2]; Agrostis stolonifera, weed, PPI application, 900 g/ha, read-out: Percent inhibition AGSST
  inhibition at 900 g/ha: 100%
[2]
  PPI activity GR80, AGSST: 30 g/ha
Corn (ZEAMX)
  inhibition at 10 g/ha: 0%
  inhibition at 30 g/ha: 0%
  inhibition at 100 g/ha: 0%
  inhibition at 300 g/ha: 25%
  inhibition at 900 g/ha: 70%
[3]
  Pre-emergence activity (GR80) PANMI: 100 g/ha
  inhibition at 10 g/ha: 0%
  inhibition at 30 g/ha: 0%
  inhibition at 100 g/ha: 30%
  inhibition at 300 g/ha: 100%
  inhibition at 900 g/ha: 90%
Soybean (GLYMX)
  inhibition at 10 g/ha: 0%
  inhibition at 30 g/ha: 0%
  inhibition at 100 g/ha: 0%
  inhibition at 300 g/ha: 0%
  inhibition at 900 g/ha: 40%
SASKR (russian thistle); Salsola kali, weed, PPI application, 30 g/ha, read-out: Percent inhibition SASKR
  inhibition at 30 g/ha: 80%
SASKR (russian thistle); Salsola kali, weed, PPI application, 100 g/ha, read-out: Percent inhibition SASKR
  inhibition at 100 g/ha: 100%
SASKR (russian thistle); Salsola kali, weed, PPI application, 300 g/ha, read-out: Percent inhibition SASKR
  inhibition at 300 g/ha: 100%
SASKR (russian thistle); Salsola kali, weed, PPI application, 900 g/ha, read-out: Percent inhibition SASKR
  inhibition at 900 g/ha: 100%
SASKR (russian thistle)
  PPI activity GR80, SASKR: 100 g/ha
LOLMG (annual ryegrass); Lolium multiflorum, weed, PPI application, 30 g/ha, read-out: Percent inhibition LOLMG
  inhibition at 30 g/ha: 95%
LOLMG (annual ryegrass); Lolium multiflorum, weed, PPI application, 100 g/ha, read-out: Percent inhibition LOLMG
  inhibition at 100 g/ha: 95%
LOLMG (annual ryegrass); Lolium multiflorum, weed, PPI application, 300 g/ha, read-out: Percent inhibition LOLMG
  inhibition at 300 g/ha: 100%
LOLMG (annual ryegrass); Lolium multiflorum, weed, PPI application, 900 g/ha, read-out: Percent inhibition LOLMG
  inhibition at 900 g/ha: 100%
LOLMG (annual ryegrass)
  PPI activity GR80, LOLMG: 300 g/ha
STEME (common chickweed)
  Pre-emergence activity GR80, STEME: 100 g/ha

## CCN(CC)C(=O)n1cnc(S(=O)(=O)C(F)F)n1 [Example 15, 1-(N,N-diethylcarbamoyl)-3-(difluoromethylsulfonyl)-1,2,4-triazole]
[1]
  Pre-emergence activity (GR80) CIRAR: 30 g/ha
SOLNI (black nightshade)
  Pre-emergence activity (GR80) SOLNI: 100 g/ha
  inhibition at 10 g/ha: 0%
  inhibition at 30 g/ha: 0%
  inhibition at 100 g/ha: 0%
  inhibition at 300 g/ha: 0%
  inhibition at 900 g/ha: 0%
DIGSA (large crabgrass)
  inhibition at 10 g/ha: 90%
  inhibition at 30 g/ha: 70%
  inhibition at 100 g/ha: 100%
  inhibition at 300 g/ha: 100%
  inhibition at 900 g/ha: 100%
  PPI activity GR80, DIGSA: 100 g/ha
AVEFA (wild oat)
  PPI activity GR80, AVEFA: 300 g/ha
[2]
  PPI activity GR80, AGSST: 100 g/ha
Corn (ZEAMX)
  inhibition at 10 g/ha: 0%
  inhibition at 30 g/ha: 0%
  inhibition at 100 g/ha: 20%
  inhibition at 300 g/ha: 60%
  inhibition at 900 g/ha: 85%
[3]
  Pre-emergence activity (GR80) PANMI: 30 g/ha
  inhibition at 10 g/ha: 0%
  inhibition at 30 g/ha: 0%
  inhibition at 100 g/ha: 20%
  inhibition at 300 g/ha: 40%
  inhibition at 900 g/ha: 99%
Soybean (GLYMX)
  inhibition at 10 g/ha: 0%
  inhibition at 30 g/ha: 0%
  inhibition at 100 g/ha: 0%
  inhibition at 300 g/ha: 15%
  inhibition at 900 g/ha: 65%
SASKR (russian thistle)
  PPI activity GR80, SASKR: 100 g/ha
LOLMG (annual ryegrass)
  PPI activity GR80, LOLMG: 100 g/ha
